In test [1] the test system is STING inhibition in human whole blood (IFNα2α production). The test is described as follows: Human whole blood assay (HWBA): cGAMP-stimulated IFNα2α production. The test is classed as cell-based. To be noted: Homo sapiens. In short, it runs like this: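 Na-citrate human whole blood from ≥3 healthy donors, preincubated 60 min at room temperature with compound (8 concentrations, top 10 μM, ~1:5 steps, 0.1% DMSO), then stimulated with cGAMP and incubated 22 h at 37 °C. Plasma IFNα2α measured by MSD immunoassay; % control versus stimulated/unstimulated wells, IC50 by 4-parameter logistic fit.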

In the next test the target is T1, human STING WT (R232) (Homo sapiens, UniProt Q86WV6, H232R).
T1 construct: purchased Cisbio 64BDSTGPEG
The test can be described thus: Human STING HTRF binding assay (competitive, Cisbio 64BDSTGPEG). A digest of the protocol:
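Competitive HTRF: 6His-tagged human STING WT R232 binding domain (residues 138-379) with anti-6His Cryptate antibody and d2-labeled STING ligand, 180 min at room temperature, 1% DMSO, 8 concentrations from 10 μM or 1 μM top in ~1:5 steps. HTRF ratios were calibrated to a cGAMP standard curve and IC50 obtained by 4-parameter logistic fit.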

16 compounds from patent US20260265244A1, “HETEROCYCLIC COMPOUNDS AS STING ANTAGONISTS” (Boehringer Ingelheim International GmbH, priority 2022, published 2026) can be followed below.

Each structure is given as a SMILES string.

T1 sequence (Q86WV6 138-379 H232R): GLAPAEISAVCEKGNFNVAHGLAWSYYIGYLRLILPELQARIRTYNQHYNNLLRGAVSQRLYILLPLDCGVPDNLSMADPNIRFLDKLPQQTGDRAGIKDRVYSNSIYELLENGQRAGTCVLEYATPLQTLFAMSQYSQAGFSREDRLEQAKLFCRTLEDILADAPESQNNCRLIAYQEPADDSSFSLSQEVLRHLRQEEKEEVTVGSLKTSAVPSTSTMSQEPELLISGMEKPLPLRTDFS

A word on the IC50: it is the concentration that inhibits the measured activity by half. A high value points to weaker potency in that assay. Take `CSc1nc2nn(C)cc2cc1-n1nc(-c2cccc3nn(C[C@H](O)c4ccccc4)cc23)c(C(C)C)c1C` [Example 20, (1R)-2-(4-{5-methyl-1-[2-methyl-6-(methylsulfanyl)-2H-pyrazolo[3,4-b]pyridin-5-yl]-4-(propan-2-yl)-1H-pyrazol-3-yl}-2H-indazol-2-yl)-1-phenylethan-1-ol]: the results for the concentration for half-maximal inhibition (IC50) (in test [1]; at human STING WT (R232)) were 84 nM and 17.4 nM, respectively.
The corresponding values for `CCCc1nc2nn(C)cc2cc1-n1nc(-c2cccc3nn(C[C@H](O)c4ccccc4)cc23)c(C(C)C)c1C` [Example 60, (1R)-2-[4-(5-methyl-1-{2-methyl-6-propyl-2H-pyrazolo[3,4-b]pyridin-5-yl}-4-(propan-2-yl)-1H-pyrazol-3-yl)-2H-indazol-2-yl]-1-phenylethan-1-ol] are 240 nM and 23.9 nM.
Regarding `Cc1nc2nn(CCCCO)cc2cc1-n1nc(-c2cccc3nn(C[C@H](O)c4ccccc4)cc23)c(C(C)C)c1C` [Example 12, 4-[5-(3-{2-[(2R)-2-hydroxy-2-phenylethyl]-2H-indazol-4-yl}-5-methyl-4-(propan-2-yl)-1H-pyrazol-1-yl)-6-methyl-2H-pyrazolo[3,4-b]pyridin-2-yl]butan-1-ol], the results for the IC50 (in test [1]; at human STING WT (R232)) were 71 nM and 4.4 nM, respectively.
On to `Cc1nc2nn(Cc3cnn(C)c3)cc2cc1-n1nc(-c2cccc3nn(C[C@H](O)c4ccccc4)cc23)c(C(C)C)c1C` [Example 24, (1R)-2-[4-(5-methyl-1-{6-methyl-2-[(1-methyl-1H-pyrazol-4-yl)methyl]-2H-pyrazolo[3,4-b]pyridin-5-yl}-4-(propan-2-yl)-1H-pyrazol-3-yl)-2H-indazol-2-yl]-1-phenylethan-1-ol], for which the IC50 in test [1] is 92 nM; on human STING WT (R232), 4.9 nM.
On the same counts, the results for `Cc1c(C(C)C)c(-c2cccc3nn(C[C@H](O)c4ccccc4)cc23)nn1-c1cc2cn(C)nc2nc1C1CCCN1` (stereo partly drawn) [Example 111, (1R)-2-(4-{5-Methyl-1-[2-methyl-6-(pyrrolidin-2-yl)-2H-pyrazolo[3,4-b]pyridin-5-yl]-4-(propan-2-yl)-1H-pyrazol-3-yl}-2H-indazol-2-yl)-1-phenylethan-1-ol] are 750 nM and 25.2 nM.
In the case of `Cc1c(C(C)C)c(-c2cccc3nn(C[C@H](O)c4ccccc4)cc23)nn1-c1cc2cn(C)nc2nc1C1(F)CC1` [Example 51, (1R)-2-(4-{1-[6-(1-fluorocyclopropyl)-2-methyl-2H-pyrazolo[3,4-b]pyridin-5-yl]-5-methyl-4-(propan-2-yl)-1H-pyrazol-3-yl}-2H-indazol-2-yl)-1-phenylethan-1-ol], the values for the concentration for half-maximal inhibition (IC50) (in test [1]; on human STING WT (R232)) were 170 nM and 16.8 nM, respectively.
As for `Cc1c(C(C)C)c(-c2cccc3nn(C[C@H](O)c4ccccc4)cc23)nn1-c1cc2cn(C)nc2nc1C(C)O` (stereo partly drawn) [Example 19, (1R)-2-(4-{1-[6-(1-hydroxyethyl)-2-methyl-2H-pyrazolo[3,4-b]pyridin-5-yl]-5-methyl-4-(propan-2-yl)-1H-pyrazol-3-yl}-2H-indazol-2-yl)-1-phenylethan-1-ol], the results for the IC50 (in test [1]; on human STING WT (R232)) were 82 nM and 16.1 nM, respectively.
On the same counts, the results for `Cc1nc2nn(CC(O)CO)cc2cc1-n1nc(-c2cccc3nn(C[C@H](O)c4ccccc4)cc23)c(C(C)C)c1C` (stereo partly drawn) [Example 67, 3-[5-(3-{2-[(2R)-2-hydroxy-2-phenylethyl]-2H-indazol-4-yl}-5-methyl-4-(propan-2-yl)-1H-pyrazol-1-yl)-6-methyl-2H-pyrazolo[3,4-b]pyridin-2-yl]propane-1,2-diol] are 330 nM and 10.8 nM.
Take `Cc1ccc([C@@H](O)Cn2cc3c(-c4nc(-c5cc6cn(C)nc6nc5C(C)C)n(C)c4C4CC4)cccc3n2)cc1` [Example 25, (1R)-2-(4-{5-cyclopropyl-1-methyl-2-[2-methyl-6-(propan-2-yl)-2H-pyrazolo[3,4-b]pyridin-5-yl]-1H-imidazol-4-yl}-2H-indazol-2-yl)-1-(4-methylphenyl)ethan-1-ol]: the values for the half-inhibitory concentration (IC50) (in test [1]; at human STING WT (R232)) were 97 nM and 18.1 nM, respectively.
The corresponding values for `Cc1nc2nn(CCN(C)C)cc2cc1-n1nc(-c2cccc3nn(C[C@H](O)c4ccccc4)cc23)c(C(C)C)c1C` [Example 39, (1R)-2-[4-(1-{2-[2-(dimethylamino)ethyl]-6-methyl-2H-pyrazolo[3,4-b]pyridin-5-yl}-5-methyl-4-(propan-2-yl)-1H-pyrazol-3-yl)-2H-indazol-2-yl]-1-phenylethan-1-ol] are 130 nM and 15.4 nM.
Consider `Cc1c(C(C)C)c(-c2cccc3nn(C[C@H](O)c4ccccc4)cc23)nn1-c1cc2cn(C)nc2nc1C1CCCO1` (stereo partly drawn) [Example 13, (1R)-2-(4-{5-methyl-1-[2-methyl-6-(oxolan-2-yl)-2H-pyrazolo[3,4-b]pyridin-5-yl]-4-(propan-2-yl)-1H-pyrazol-3-yl}-2H-indazol-2-yl)-1-phenylethan-1-ol], for which the half-maximal inhibitory concentration (IC50) in test [1] came out at 73 nM; on human STING WT (R232) it was 17.5 nM.
On the same counts, the results for `Cc1c(C(C)C)c(-c2cccc3nn(C[C@H](O)c4ccccc4)cc23)nn1-c1cc2cn(C)nc2nc1C(F)F` [Example 64, (1R)-2-(4-{1-[6-(difluoromethyl)-2-methyl-2H-pyrazolo[3,4-b]pyridin-5-yl]-5-methyl-4-(propan-2-yl)-1H-pyrazol-3-yl}-2H-indazol-2-yl)-1-phenylethan-1-ol] are 300 nM and 7.6 nM.
With `COC(C)c1nc2nn(C)cc2cc1-n1nc(-c2cccc3nn(C[C@H](O)c4ccccc4)cc23)c(C(C)C)c1C` (stereo partly drawn) [Example 58, (1R)-2-(4-{1-[6-(1-methoxyethyl)-2-methyl-2H-pyrazolo[3,4-b]pyridin-5-yl]-5-methyl-4-(propan-2-yl)-1H-pyrazol-3-yl}-2H-indazol-2-yl)-1-phenylethan-1-ol], the IC50 worked out at 230 nM in test [1] and 15.8 nM on human STING WT (R232).
For the compound `Cc1nc2nn(Cc3cccnc3)cc2cc1-n1nc(-c2cccc3nn(C[C@H](O)c4ccccc4)cc23)c(C(C)C)c1C` [Example 6, (1R)-2-[4-(5-methyl-1-{6-methyl-2-[(pyridin-3-yl)methyl]-2H-pyrazolo[3,4-b]pyridin-5-yl}-4-(propan-2-yl)-1H-pyrazol-3-yl)-2H-indazol-2-yl]-1-phenylethan-1-ol], the IC50 in test [1] stood at 61 nM; on human STING WT (R232), 14.2 nM.
Take `CC(C)c1nc2nn(C)cc2cc1-c1nc(-c2cccc3nn(C[S@@+]([O-])c4ccccc4)cc23)c(C2CC2)n1C` [Example 22, 2-{[(S)-benzenesulfinyl]methyl}-4-{5-cyclopropyl-1-methyl-2-[2-methyl-6-(propan-2-yl)-2H-pyrazolo[3,4-b]pyridin-5-yl]-1H-imidazol-4-yl}-2H-indazole]: the IC50 in test [1] was 86 nM; on human STING WT (R232), 20 nM.
`Cc1nc2nn(C)cc2cc1-n1nc(-c2cccc3nn(C[C@H](OCCCCO)c4ccccc4)cc23)c(C(C)C)c1C` [Example 66, 4-[(1R)-2-[4-(1-{2,6-dimethyl-2H-pyrazolo[3,4-b]pyridin-5-yl}-5-methyl-4-(propan-2-yl)-1H-pyrazol-3-yl)-2H-indazol-2-yl]-1-phenylethoxy]butan-1-ol]: the half-maximal inhibitory concentration (IC50) in test [1] stood at 320 nM; at human STING WT (R232) it was 8 nM.
